Data from patent publication US8338426B2, “Piperazinyl derivatives useful as modulators of the neuropeptide Y2 receptor” (Janssen Pharmaceutica NV, priority 2007, dated 2012).

Columns and labels:
[1] = tested on: amphetamine-induced hyperactivity; test: Amphetamine-induced hyperactivity in c57bl6/j mice; type: in vivo; details: 3 and 10 mg/kg i.p., amphetamine 3 mg/kg s.c.
Method: To the extent that ethanol-induced hyperactivity is mediated, at least partially, by the dopaminergic system, additional experiments were designed to evaluate whether the compound of formula (A) attenuates the hyperactivity induced by amphetamine, an indirect dopamine agonist.
Locomotor activity was measured with a Hamilton Kinder motor monitor infrared beam apparatus equipped with a SmartFrame cage rack throughout which basic movements were recorded. These experiments were conducted using a between subject design. Sessions started when 8-10-week old c57bl6/j mice were located in the test cages and they lasted for 180 min. Amphetamine (3 mg/kg, s.c.) was administered 60 min after the beginning of the session. The compound of formula (A) (1,3,10 mg/kg, i.p.) or vehicle was administered 15 min prior to amphetamine and locomotor activity was measured for an additional 120 min. The average of basic movements recorded for 60 min after amphetamine was calculated for each animal. Data were analyzed with one-way analysis of variance (ANOVA) using Graph Pad.

NPY Y2 receptor = target: T1, NPY Y2 receptor (Homo sapiens, UniProt P49146); test: CEREP binding panel, NPY Y2
T1 sequence (P49146 1-381): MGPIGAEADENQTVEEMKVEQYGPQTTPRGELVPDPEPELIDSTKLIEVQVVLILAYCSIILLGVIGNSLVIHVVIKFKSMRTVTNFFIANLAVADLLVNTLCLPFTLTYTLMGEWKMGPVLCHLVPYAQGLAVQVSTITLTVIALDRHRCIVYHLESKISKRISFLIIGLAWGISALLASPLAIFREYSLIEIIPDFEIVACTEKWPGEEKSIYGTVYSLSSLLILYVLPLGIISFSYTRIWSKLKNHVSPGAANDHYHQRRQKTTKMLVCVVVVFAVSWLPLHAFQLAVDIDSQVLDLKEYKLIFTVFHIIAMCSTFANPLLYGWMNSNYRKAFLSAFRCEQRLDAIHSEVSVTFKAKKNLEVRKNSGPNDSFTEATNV
Method: The selectivity of the compound of formula (A) was further evaluated in a large variety of ion-channels, transporters and receptor-binding assays including the Y1 receptor subtype. These assays were performed by CEREP (Celles L'Evescault, France; www.cere.com<http//www.cerea.com>). Selectivity vs the Y5 receptor subtype was evaluated as described in Bonaventure, P., D. Nepomuceno, C. Mazur, B. Lord, D. A. Rudolph, J. A. Jablonowski, N. I. Carruthers and T. W. Lovenberg, J Pharmacol Exp Ther. 2004, 308, 1130.
The compound of formula (A) was assayed by binding in a panel of 50 receptors, ion channels and transporters assays (CEREP) including adenosine (A1,A2A,A3), adrenergic (α1, α2, β1), angiotensin (AT1), dopamine (D1, D2), bradykinin (B2), cholecystokinin (CCKA), galanin (GAL2), melatonin ML1), muscarinic (M1, M2, M3), neurotensin (NTS), neurokinin (NK2, NK3), NPY (Y1, Y2) opiate (m, k, d), serotonin (5-HT1A, 5-HT1B, 5-HT2A, 5-HT3, 5-HT5A, 5-HT6, 5-HT7), somatostatin, vasopressin (V1a), norepinephrine transporter, dopamine transporter and ion channels (sodium, calcium, potassium and chloride).

inhibition at 1 µM (NPY Y2 receptor): 100%
Structure (SMILES): CCN(CC)C(=O)C(c1ccccc1)N1CCN(c2ccc(NC(=O)c3ccccc3-c3cccnc3)cc2F)CC1 (racemic) [Cmpd (A), N-{4-[4-(Diethylcarbamoyl-phenyl-methyl)-piperazin-1-yl]-3-fluoro-phenyl}-2-pyridin-3-yl-benzamide]
effect on amphetamine-induced hyperactivity [1]: blocked amphetamine-induced hyperactivity
